In patent US20260283206A1, “SWEETENER COMPOSITIONS” (CARGILL, INCORPORATED, priority 2023, published 2026):
“Also recorded” adds a separate entry of the source.

Assay: Sensory panel assay of aqueous steviol glycoside solutions (roundtable consensus, descriptive analysis)
Type: in vivo
Details: 500 ppm in reverse osmosis water, panel of four; for Sensory Attribute Comments - Off-tastes (bitterness, metallic taste) / Sensory Attribute Comments - Sweetness (intensity / profile): compared against Reb A and Reb D/M
Procedure: Assays were carried out to characterize the sensory attributes, e.g., sweetness profile, of aqueous solutions of samples. Sensory attributes of the compositions were tested by a panel of individuals that are experienced in sensory testing. The experienced panelists assessed sensory attributes such as, but not limited to, bitterness, metallic notes, mouth drying, sweetness intensity, and sweetness linger. The panelists compared the sweeteners against Reb A and Reb D/M. To test each composition, the experienced panelists dispensed approximately 2-4 fl oz of each sample or solution into their own mouths, dispersed the solution by moving their tongues, and individually recorded a sensory attribute scale value. Between tasting solutions, the panelists were able to cleanse their palates with water and/or rice crackers.
Assays were carried out to characterize the sensory attributes of aqueous solutions. Sensory attributes were analyzed by a panel of four individuals using a roundtable consensus approach. All panelists used the assay method described above. The panelists provided a descriptive analysis of the samples. The sensory attributes of Reb A and Reb D/M are known, and thus Reb A and Reb D/M were used as comparative samples. The sweetness profile of Reb A is described in the art, for example in DuBois et al. (“Concentration—Repose Relationship of Sweeteners,” Sweeteners: Discovery, Molecular Design, and Chemoreception, Chapter 20, pages 261-276, American Chemical Society 1991).

Row | SMILES | Sensory Attribute Comments - Off-tastes (bitterness, metallic taste) | Sensory Attribute Comments - Sweetness (intensity / profile) | Sensory Attribute Comments - Sweetness onset and rise
1 | C=C1C[C@@]23CC[C@H]4[C@@](C)(CCC[C@@]4(C)C(=O)O[C@@H]4O[C@H](CO)[C@@H](O)[C@H](O)[C@H]4O[C@@H]4O[C@H](CO)[C@@H](O)[C@H](O)[C@H]4O)[C@@H]2CC[C@]1(O[C@@H]1O[C@H](CO)[C@@H](O)[C@H](O[C@@H]2O[C@H](CO)[C@@H](O)[C@H](O)[C@H]2O)[C@H]1O[C@@H]1OC[C@@H](C)[C@H](O)[C@H]1O)C3 [Sample 1, rebaudioside EM] | Off-tastes: Less bitter than Reb A. |  | 
2 | C=C1C[C@@]23CC[C@H]4[C@@](C)(CCC[C@@]4(C)C(=O)O[C@@H]4O[C@H](CO)[C@@H](O)[C@H](O)[C@H]4O)[C@@H]2CC[C@]1(O[C@@H]1O[C@H](CO)[C@@H](O)[C@H](O[C@@H]2O[C@H](CO)[C@@H](O)[C@H](O)[C@H]2O)[C@H]1O[C@@H]1O[C@H](CO)[C@@H](O)[C@H](O)[C@H]1O)C3 [Sample 3, rebaudioside A, reference compound] | Off-tastes: Typical Reb A bitterness, metallic taste. | Sweetness: Sweetness profile typical of Reb A. | 
3 | C=C1CC23CCC4C(C)(C(=O)OC5OC(CO)C(O)C(OC6OC(CO)C(O)C(O)C6O)C5OC5OCC(O)C(O)C5O)CCCC4(C)C2CCC1(OC1OC(CO)C(O)C(OC2OC(CO)C(O)C(O)C2O)C1OC1OC(CO)C(O)C(O)C1O)C3 (stereo not drawn) [Sample 2, rebaudioside V2] | Off-tastes: Very faint bitterness. Quite clean sweetness. | Sweetness: Higher peak sweetness than Sample 5 | (Reb D/M). Slight delay in onset (less delay than Sample; also recorded: very rapid rise
